Results taken from US20200222474A1, “COMPOSITIONS AND METHODS FOR INCREASING PHYTOCHEMICAL BIOAVAILABLITY AND BIOACTIVITY” (North Carolina State University, priority 2017, published 2020).

Tested on: L. acidophilus NCFM
Experiment: RNA-seq transcriptional analysis of L. acidophilus NCFM growing on plant glycosides
Assay type: cell-based, Lactobacillus acidophilus
[1] = LBA1481 D-ribose-binding protein precursor, COG G
[2] = LBA1482 Ribose ABC transporter, COG G
[3] = LBA1483 Ribose ABC transporter ATP binding protein, COG G
[4] = LBA1484 D-ribose pyranase, COG G
[5] = LBA1494 Lincomycin-resistance protein, COG GEPR
[6] = LBA1607 Phosphatidylserine decarboxylase precursor, COG I
[7] = LBA1632 NAD-dependent aldehyde dehydrogenase, COG C
[8] = LBA1653 Nicotinamide mononucleotide, COG H
[9] = LBA1684 Putative PTS system IIA component, COG G
[10] = LBA1689 Maltose-6′-phosphate Oucosidase, COG G
[11] = LBA1700 Transcriptional regulator-type, COG K
[12] = LBA1701 Melibiose operon regulatory protein, COG K
[13] = LBA1705 PTS system IIBC component, COG G
[14] = LBA1708 Transcriptional antiterminator, COG K
[15] = LBA1710 Thermostable pullulanase, COG G
[16] = LBA1812 Alpha-glucosidase II, COG G
[17] = LBA1870 Maltose phosphorylase, COG G
[18] = LBA1872 Oligo-1,6-glucosidase, COG G
[19] = LBA1955 Transcription regulator family protein, COG K
[20] = gene LBA0046 (Hypothetical protein)
[21] = gene LBA0149 (Putative nucleotide-binding protein)
[22] = gene LBA0263 (Hypothetical protein)

N#C[C@H](O[C@@H]1O[C@H](CO[C@@H]2O[C@H](CO)[C@@H](O)[C@H](O)[C@H]2O)[C@@H](O)[C@H](O)[C@H]1O)c1ccccc1 [Amygdalin]
Transcripts per million (rpm) (LBA1468 Beta-galactosidase small subunit, COG G): 61.3 rpm | Log2 differential normalized TPM ratio compared to glucose [1]: 3 | Log2 differential normalized TPM ratio compared to lactose [1]: 2.3 | Transcripts per million (rpm) [1]: 33 rpm | Log2 differential normalized TPM ratio compared to glucose [2]: 3.4 | Log2 differential normalized TPM ratio compared to lactose [2]: 2.3 | Transcripts per million (rpm) [2]: 32.6 rpm | Log2 differential normalized TPM ratio compared to glucose [3]: 3.6 | Log2 differential normalized TPM ratio compared to lactose [3]: 2.6 | Transcripts per million (rpm) [3]: 30.8 rpm | Log2 differential normalized TPM ratio compared to glucose [4]: 3.6 | Log2 differential normalized TPM ratio compared to lactose [4]: 2.9 | Transcripts per million (rpm) [4]: 37.3 rpm | Log2 differential normalized TPM ratio compared to glucose (LBA1485 Ribokinase, COG G): 3.5 | Log2 differential normalized TPM ratio compared to lactose (LBA1485 Ribokinase, COG G): 2.8 | Transcripts per million (rpm) (LBA1485 Ribokinase, COG G): 29.8 rpm | Log2 differential normalized TPM ratio compared to glucose [5]: −0.7 | Log2 differential normalized TPM ratio compared to lactose [5]: −0.8 | Transcripts per million (rpm) [5]: 2.6 rpm | Log2 differential normalized TPM ratio compared to glucose [6]: 2.6 | Log2 differential normalized TPM ratio compared to lactose [6]: 1.6 | Transcripts per million (rpm) [6]: 102.4 rpm | Log2 differential normalized TPM ratio compared to glucose [7]: 4.4 | Log2 differential normalized TPM ratio compared to lactose [7]: 2.6 | Transcripts per million (rpm) [7]: 1223.3 rpm | Log2 differential normalized TPM ratio compared to glucose [8]: −0.1 | Log2 differential normalized TPM ratio compared to lactose [8]: −0.7 | Transcripts per million (rpm) [8]: 180.2 rpm | Log2 differential normalized TPM ratio compared to glucose [9]: 6.6 | Log2 differential normalized TPM ratio compared to lactose [9]: 4.7 | Transcripts per million (rpm) [9]: 976.1 rpm | Log2 differential normalized TPM ratio compared to glucose [10]: 5.3 | Log2 differential normalized TPM ratio compared to lactose [10]: 3.9 | Transcripts per million (rpm) [10]: 113.8 rpm | Log2 differential normalized TPM ratio compared to glucose [11]: 2.5 | Log2 differential normalized TPM ratio compared to lactose [11]: 2.1 | Transcripts per million (rpm) [11]: 96.2 rpm | Log2 differential normalized TPM ratio compared to glucose [12]: 5.3 | Log2 differential normalized TPM ratio compared to lactose [12]: 4.6 | Transcripts per million (rpm) [12]: 1323.5 rpm | Log2 differential normalized TPM ratio compared to glucose [13]: 2.7 | Log2 differential normalized TPM ratio compared to lactose [13]: 1.9 | Transcripts per million (rpm) [13]: 18.5 rpm | Log2 differential normalized TPM ratio compared to glucose [14]: 2.8 | Log2 differential normalized TPM ratio compared to lactose [14]: 1.4 | Transcripts per million (rpm) [14]: 3.3 rpm | Log2 differential normalized TPM ratio compared to glucose [15]: 2.1 | Log2 differential normalized TPM ratio compared to lactose [15]: 1.7 | Transcripts per million (rpm) [15]: 26.7 rpm | Log2 differential normalized TPM ratio compared to glucose (LBA1723 Transposase, COG L): 2 | Log2 differential normalized TPM ratio compared to lactose (LBA1723 Transposase, COG L): 1.8 | Transcripts per million (rpm) (LBA1723 Transposase, COG L): 176.9 rpm | Log2 differential normalized TPM ratio compared to glucose [16]: 5.3 | Log2 differential normalized TPM ratio compared to lactose [16]: 3.2 | Transcripts per million (rpm) [16]: 520.3 rpm | Log2 differential normalized TPM ratio compared to glucose [17]: 2.7 | Log2 differential normalized TPM ratio compared to lactose [17]: 3.9 | Transcripts per million (rpm) [17]: 539.7 rpm | Log2 differential normalized TPM ratio compared to glucose (LBA1871 Neopullulanase, COG G): 4.3 | Log2 differential normalized TPM ratio compared to lactose (LBA1871 Neopullulanase, COG G): 3.6 | Transcripts per million (rpm) (LBA1871 Neopullulanase, COG G): 43.6 rpm | Log2 differential normalized TPM ratio compared to glucose [18]: 3.6 | Log2 differential normalized TPM ratio compared to lactose [18]: 3.2 | Transcripts per million (rpm) [18]: 30 rpm | Log2 differential normalized TPM ratio compared to glucose (LBA1873 Acetate kinase, COG C): 4.6 | Log2 differential normalized TPM ratio compared to lactose (LBA1873 Acetate kinase, COG C): 3.2 | Transcripts per million (rpm) (LBA1873 Acetate kinase, COG C): 67.3 rpm | Log2 differential normalized TPM ratio compared to glucose (LBA1878 Glycerol kinase, COG C): 1.4 | Log2 differential normalized TPM ratio compared to lactose (LBA1878 Glycerol kinase, COG C): 1.3 | Transcripts per million (rpm) (LBA1878 Glycerol kinase, COG C): 17.8 rpm | Log2 differential normalized TPM ratio compared to glucose [19]: 3.8 | Log2 differential normalized TPM ratio compared to lactose [19]: 4.2 | Transcripts per million (rpm) [19]: 5835.9 rpm | number of up-regulated genes (RNA-seq, compared to glucose): 116 genes | number of uniquely induced genes (RNA-seq, up-regulated genes not shared with the other PGs): 58 | Log2 differential normalized TPM ratio compared to glucose [20]: −3 | Log2 differential normalized TPM ratio compared to lactose [20]: −3.8 | Transcripts per million (rpm) [20]: 29.9 rpm | Log2 differential normalized TPM ratio compared to glucose [21]: 2 | Log2 differential normalized TPM ratio compared to lactose [21]: 1.2 | Transcripts per million (rpm) [21]: 1625.4 rpm | Log2 differential normalized TPM ratio compared to glucose [22]: 2.1 | Log2 differential normalized TPM ratio compared to lactose [22]: 1.4 | Transcripts per million (rpm) [22]: 55.9 rpm
